In patent publication US8722578B2, “Spiroheterocyclic pyrrolidinedione herbicidal compositions” (Syngenta Participations AG, priority 2008, dated 2014):

Experiments:
[1] = test system: Alopecurus myosuroides (ALOMY); experiment: Example B post-emergence herbicidal activity, glasshouse pot test; type: in vivo; details: 312 h, rate 250 g/ha, evaluated after 13 days, read-out: ALOMY post-emergence activity (100=total damage to plant; 0=no damage to plant)
Description: (§1) Seeds of a variety of test species are sown in standard soil in pots. After cultivation for one day (pre-emergence) or after 8 days cultivation (post-emergence) under controlled conditions in a glasshouse (at 24/16° C., day/night; 14 hours light; 65% humidity), the plants are sprayed with an aqueous spray solution derived from the formulation of the technical active ingredient in acetone/water (50:50) solution containing 0.5% Tween 20 (polyoxyethelyene sorbitan monolaurate, CAS RN 9005-64-5). The test plants are then grown in a glasshouse under controlled conditions in a glasshouse (at 24/16° C., day/night; 14 hours light; 65% humidity) and watered twice daily. After 13 days for pre and post-emergence, the test is evaluated (100=total damage to plant; 0=no damage to plant). Test Plants: Setaria faberi (SETFA), Alopecurus myosuroides (ALOMY), Echinochloa crus-galli (ECHCG), Avena fatua (AVEFA)

Avena fatua (AVEFA) = experiment: as above; type: in vivo; details: 312 h, rate 250 g/ha, evaluated after 13 days, read-out: AVEFA post-emergence activity (100=total damage to plant; 0=no damage to plant)
Description: as §1

[2] = test system: Echinochloa crus-galli (ECHCG); experiment: as above; type: in vivo; details: 312 h, rate 250 g/ha, evaluated after 13 days, read-out: ECHCG post-emergence activity (100=total damage to plant; 0=no damage to plant)
Description: as §1

Setaria faberi (SETFA) = experiment: as above; type: in vivo; details: 312 h, rate 250 g/ha, evaluated after 13 days, read-out: SETFA post-emergence activity (100=total damage to plant; 0=no damage to plant)
Description: as §1

CON1CCC2(CC1)NC(=O)C(c1ccc(Cl)c(Cl)c1)=C2OC(=O)N(C)CCC#N [Compound P41]
melting point: 56 to 59 °C

CCOC(=O)OC1=C(c2ccc(C3CC3)cc2C)C(=O)NC12CCN(OC)CC2 [Compound P60]
melting point: 193 to 195 °C

CON1CCC2(CC1)NC(=O)C(c1ccc(C3CC3)cc1C)C2=O (stereo not shown) [Compound T18]
melting point: 191 to 194 °C

CON1CCC2(CC1)NC(=O)C(c1c(C)cc(C3CC3)cc1C)C2=O (stereo not shown) [Compound T13]
melting point: > 250 °C

CON1CCC2(CC1)NC(=O)C(c1cc(C)ccc1C)=C2OC(=O)OCC(C)(C)C [Compound P7]
melting point: 196 to 197 °C

CON1CCC2(CC1)NC(=O)C(c1cc(Br)c(C)cc1C)=C2OC(=O)C(C)(C)C [Compound P52]
melting point: 225 to 226 °C

CCON1CCC2(CC1)NC(=O)C(c1cc(C)ccc1C)=C2OC(=O)C(C)(C)C [Compound P24]
melting point: 169 to 170 °C

COc1ccc(OC)c(C2=C(OC(=O)N(C)CCC#N)C3(CCN(OC)CC3)NC2=O)c1 [Compound P42]
melting point: 187 to 189 °C

CON1CCC2(CC1)NC(=O)C(c1ccc(C3CC3)cc1Cl)=C2OC(=O)C(C)(C)C [Compound P59]
melting point: 195 to 197 °C

CCOC(=O)OC1=C(c2ccc(Cl)cc2Cl)C(=O)NC12CCN(OCC)CC2 [Compound P23]
melting point: 183 to 184 °C

C#CCOC(=O)OC1=C(c2cc(C)ccc2C)C(=O)NC12CCN(OC)CC2 [Compound P8]
melting point: 151 to 153 °C

COCOC1=C(c2cc(C)ccc2C)C(=O)NC12CCN(OC)CC2 [Compound P12]
melting point: 183 to 185 °C

CCON1CCC2(CC1)NC(=O)C(c1cc(C)ccc1C)C2=O (stereo not shown) [Compound T7]
melting point: 166 to 167 °C

CCON1CCC2(CC1)NC(=O)C(c1ccc(Cl)cc1Cl)=C2OC(=O)C(C)(C)C [Compound P26]
melting point: 165 to 166 °C

CON1CCC2(CC1)NC(=O)C(c1cc(-c3ccc(Cl)cc3)c(C)cc1C)C2=O (stereo not shown) [Compound T15]
pest or weed control at 250 g/ha [1]: 60%
pest or weed control at 250 g/ha (Avena fatua (AVEFA)): 60%
pest or weed control at 250 g/ha [2]: 90%
pest or weed control at 250 g/ha (Setaria faberi (SETFA)): 90%
melting point: 168 to 169 °C

CON1CCC2(CC1)NC(=O)C(c1cc(C)ccc1C)=C2OC(=O)C(C)(C)C [Compound P9]
melting point: 158 to 159 °C

CON1CCC2(CC1)NC(=O)C(c1c(Cl)cccc1Cl)=C2OC(=O)N(C)CCC#N [Compound P33]
melting point: 239 to 242 °C

C=COC(=O)OC1=C(c2cc(C)ccc2C)C(=O)NC12CCN(OC)CC2 [Compound P6]
melting point: 162 to 164 °C

CCC(=O)OC1=C(c2cc(C)ccc2C)C(=O)NC12CCN(OC)CC2 [Compound P20]
melting point: 202 to 204 °C

CON1CCC2(CC1)NC(=O)C(c1c(C)cc(-c3ccc(Cl)cc3)cc1C)=C2OC(=O)C(C)(C)C [Compound P71]
pest or weed control at 250 g/ha [1]: 0%
pest or weed control at 250 g/ha (Avena fatua (AVEFA)): 20%
pest or weed control at 250 g/ha [2]: 30%
pest or weed control at 250 g/ha (Setaria faberi (SETFA)): 60%
melting point: > 250 °C

CON1CCC2(CC1)NC(=O)C(c1c(C)cc(C)cc1C)=C2OC(=O)N(C)CCC#N [Compound P40]
melting point: 220 to 224 °C

CON1CCC2(CC1)NC(=O)C(c1ccc(Br)cc1Cl)C2=O (stereo not shown) [Compound T21]
pest or weed control at 250 g/ha [1]: 80%
pest or weed control at 250 g/ha (Avena fatua (AVEFA)): 60%
pest or weed control at 250 g/ha [2]: 90%
pest or weed control at 250 g/ha (Setaria faberi (SETFA)): 80%
melting point: 167 to 169 °C

CON1CCC2(CC1)NC(=O)C(c1ccc(Cl)c(Cl)c1)C2=O (stereo not shown) [Compound T10]
melting point: 239 to 242 °C

CON1CCC2(CC1)NC(=O)C(c1cc(C)ccc1C)=C2OCC#N [Compound P35]
melting point: 104 to 106 °C

CCOC(=O)OC1=C(c2c(C)cc(C3CC3)cc2C)C(=O)NC12CCN(OC)CC2 [Compound P50]
melting point: 215 to 216 °C

CON1CCC2(CC1)NC(=O)C(c1ccc(C3CC3)cc1C)=C2OC(=O)C(C)(C)C [Compound P61]
melting point: 244 to 245 °C

CON1CCC2(CC1)NC(=O)C(c1cc(Br)c(F)cc1C)=C2O [Compound T19, 3-(5-bromo-4-fluoro-2-methyl-phenyl)-4-hydroxy-8-methoxy-1,8-diaza-spiro[4.5]dec-3-en-2-one]
melting point: 229 to 230 °C

CON1CCC2(CC1)NC(=O)C(c1cc(C3CC3)c(C)cc1C)C2=O (stereo not shown) [Compound T16, 3-(5-cyclopropyl-2,4-dimethyl-phenyl)-4-hydroxy-8-methoxy-1,8-diaza-spiro[4.5]dec-3-en-2-one]
pest or weed control at 250 g/ha [1]: 60%
pest or weed control at 250 g/ha (Avena fatua (AVEFA)): 30%
pest or weed control at 250 g/ha [2]: 60%
pest or weed control at 250 g/ha (Setaria faberi (SETFA)): 80%

CCOC(=O)OC1=C(c2ccc(Cl)c(Cl)c2)C(=O)NC12CCN(OC)CC2 [Compound P30]
melting point: 222 to 224 °C

CCOC(=O)OC1=C(c2ccc(C3CC3)cc2Cl)C(=O)NC12CCN(OC)CC2 [Compound P58]
melting point: 190 to 192 °C

C=CCOC(=O)OC1=C(c2cc(Br)ccc2C)C(=O)NC12CCN(OC)CC2 [Compound P45]
melting point: 157 to 158 °C

COc1ccc(OC)c(C2C(=O)NC3(CCN(OC)CC3)C2=O)c1 (stereo not shown) [Compound T11]
melting point: 194 to 196 °C

CON1CCC2(CC1)NC(=O)C(c1c(C)cc(C)c(Cl)c1C)C2=O (stereo not shown) [Compound T20]
melting point: > 200 °C

CON1CCC2(CC1)NC(=O)C(c1cc(Br)ccc1C)=C2OC(=O)N(C)CCC#N [Compound P28]
melting point: 197 to 200 °C

CCOC(=O)OC1=C(c2cc(C)ccc2C)C(=O)NC12CCN(OC)CC2 [Compound P1]
melting point: 170 to 173 °C

CCOC(=O)OC1=C(c2cc(Br)c(C)cc2C)C(=O)NC12CCN(OC)CC2 [Compound P51]
melting point: 206 to 209 °C

C#CCOC1=C(c2cc(C)ccc2C)C(=O)NC12CCN(OC)CC2 [Compound P38]
melting point: 184 to 185 °C

CON1CCC2(CC1)NC(=O)C(c1ccc(C3CC3)cc1Cl)C2=O (stereo not shown) [Compound T17]
melting point: 206 to 207 °C

CON1CCC2(CC1)NC(=O)C(c1ccc(Br)cc1C)C2=O (stereo not shown) [Compound T22]
pest or weed control at 250 g/ha [1]: 60%
pest or weed control at 250 g/ha (Avena fatua (AVEFA)): 40%
pest or weed control at 250 g/ha [2]: 80%
pest or weed control at 250 g/ha (Setaria faberi (SETFA)): 80%
melting point: 187 to 189 °C

CON1CCC2(CC1)NC(=O)C(c1cc(-c3ccc(Cl)cc3)c(C)cc1C)=C2OC(=O)C(C)(C)C [Compound P54]
melting point: 229 to 230 °C

COCCOC1=C(c2cc(C)ccc2C)C(=O)NC12CCN(OC)CC2 [Compound P73]
melting point: 161 to 164 °C

CCN(CC)C(=O)OC1=C(c2cc(C)ccc2C)C(=O)NC12CCN(OC)CC2 [Compound P10]
melting point: 129 to 131 °C

CCOC(=O)OC1=C(c2c(Cl)cccc2Cl)C(=O)NC12CCN(OC)CC2 [Compound P17]
melting point: 229 to 232 °C

COC1=C(c2cc(C)ccc2C)C(=O)NC12CCN(OC)CC2 [Compound P11]
melting point: 203 to 205 °C

C=CCOC(=O)OC1=C(c2ccc(Cl)c(Cl)c2)C(=O)NC12CCN(OC)CC2 [Compound P46]
melting point: 210 to 213 °C

C=CCOC(=O)OC1=C(c2cc(OC)ccc2OC)C(=O)NC12CCN(OC)CC2 [Compound P47]
melting point: 156 to 157 °C

CCON1CCC2(CC1)NC(=O)C(c1ccc(Cl)cc1Cl)C2=O (stereo not shown) [Compound T6]
melting point: 244 to 245 °C

CCOC(=O)OC1=C(c2cc(C)ccc2C)C(=O)NC12CCN(OCC)CC2 [Compound P21]
melting point: 167 to 168 °C

CON1CCC2(CC1)NC(=O)C(c1cc(C)ccc1C)=C2OC(=O)OC(C)C [Compound P3]
melting point: 207 to 209 °C

CON1CCC2(CC1)NC(=O)C(c1cc(-c3ccc(F)cc3)c(F)cc1C)=C2OC(=O)C(C)(C)C [Compound P72]
melting point: 101 to 104 °C

CON1CCC2(CC1)NC(=O)C(c1cc(Br)c(F)cc1C)=C2OC(=O)C(C)(C)C [Compound P63]
melting point: 216 to 217 °C

CON1CCC2(CC1)NC(=O)C(c1cc(Br)ccc1C)C2=O (stereo not shown) [Compound T8]
melting point: 194 to 196 °C

CON1CCC2(CC1)NC(=O)C(c1cc(C)ccc1C)=C2OS(=O)(=O)C(C)C [Compound P13]
melting point: 168 to 170 °C

CCOC(=O)OC1=C(c2cc(Br)ccc2C)C(=O)NC12CCN(OC)CC2 [Compound P27]
melting point: 205 to 209 °C

C=CCOC1=C(c2cc(C)ccc2C)C(=O)NC12CCN(OC)CC2 [Compound P37]
melting point: 173 to 174 °C

CON1CCC2(CC1)NC(=O)C(c1c(C)cc(C3CC3)cc1C)=C2OC(=O)C(C)(C)C [Compound P57]
melting point: > 200 °C

CCCOC(=O)OC1=C(c2cc(C)ccc2C)C(=O)NC12CCN(OC)CC2 [Compound P2]
melting point: 133 to 136 °C

CON1CCC2(CC1)NC(=O)C(c1cc(C)ccc1C)=C2OC(C)=O [Compound P19]
melting point: 233 to 236 °C

C=CCOC(=O)OC1=C(c2cc(C)ccc2C)C(=O)NC12CCN(OC)CC2 [Compound P4]
melting point: 140 to 142 °C

CCOC(=O)OC1=C(c2cc(OC)ccc2OC)C(=O)NC12CCN(OC)CC2 [Compound P31]
melting point: 192 to 193 °C
